Data: PMC13136073, “Discovery of 4‐Quinazolinone‐Containing Phenylalanine Derivatives as Potent, Resistant‐Tolerant HIV Capsid Inhibitors” (MedComm, 2026)

Test: Stability in human liver microsomes
Assay type: in vitro ADME
Details: HLM, scaled

Question: With `O=C(O)Cc1ccccc1Nc1c(Cl)cccc1Cl` [Diclofenac, diclofenac] as the compound, how does the “CLint(liver)” value read?
Answer: 200.0 mL/min/kg
